Measured values reported in patent US12515027B2, “Subcutaneous biodegradable reservoir device” (Research Triangle Institute, priority 2018, dated 2026).
“And” between values parts separate entries of the source, which are not always exact repeats. Equal values may be shown once. Where a name gives a salt, the structure may show the parent alone.

What was measured:
[1] = subdermal silicone implant with PVA-coated channels, beagle dogs; cited from earlier work
[2] = In vitro release from PCL reservoir implants in PBS pH 7.4 at 37 °C (UV-Vis); type: physicochemical; conditions: for release rate of TAF: first 30 days, normalized to 314 mm^2; for release rate of TAF from implant: summary b130; for TAF dosage (daily release rate): release over 35 days, FIG. 24; for Release Rates of TAF, Gamma-Irradiated: 18-24 kGy
Experimental: The implants were incubated in 1×PBS (pH 7.4) at 37° C. Drug quantity released in media was measured via UV-Vis three times per week during which the implants were transferred to fresh buffer to maintain sink conditions. Drug concentrations were determined by correlating UV absorbance values to a standard curve. Standard curves involved measuring peak absorbance values as a function of drug concentrations diluted by half from bulk solutions. Peak absorbance values were determined by scanning the dilute drug solutions from 230 to 700 nm at a step size of 1 nm and assessing the maximum UV absorbance value.
Testing was performed to evaluate release kinetics of varying formulations of active agent and excipient. In particular, the release mechanism and release profiles for TAF formulated with varying mass quantities of castor oil from extruded PCL tubes was evaluated. Heat extruded PCL devices were fabricated (2.5 mm×40 mm) using 80 kDa Sigma grade PCL. […] For the in vitro release studies, devices were incubated in 40 mL of phosphate buffered saline (PBS) at pH 7.4 in a shaking incubator at 37° C. The implants were transferred to fresh buffer three times per week to maintain sink conditions.
Testing was performed to evaluate the in vitro release profile for an exemplary segmented device. In-vitro conditions included a simulated physiological media of a salt solution at pH between 6.5 and 7.5 at a temperature of 37° C. The exemplary device was engineered to release two APIs simultaneously, both at zero-order release kinetics. The device was fabricated with a segmented architecture that contained LNG formulated with ethyl oleate at a 1:4 ratio and EFdA formulated with castor oil at a 1:1 ratio and housed in separate compartments within a single implant design. Different segment lengths, polymer membrane thicknesses and polymer properties were tested.
In vitro release characterization involved incubation of the implants in 40 mL 1× phosphate buffered saline (PBS) (pH 7.4) at 37° C. and placed on an orbital shaker. […] The release buffer was sampled three times per week during which the devices were transferred to 40 mL of fresh buffer to maintain sink conditions. TAF quantity released in each PBS buffer during the time interval was calculated and cumulative mass of drug release as a function of time was determined.

[3] = subcutaneous implant, up to 90 days
Experimental: Testing was performed to evaluate the in vivo release profile of an exemplary device.

[4] = Chromatographic purity (stability) of formulation inside implant after in-vitro exposure (UPLC/UV); type: physicochemical; conditions: after 180 days in simulated physiological conditions
[5] = Solubility of active agents in excipients (saturated solutions, UPLC/UV)
Experimental: Over a 24-hour period, the solutions were mixed periodically and returned to the water bath. After approximately 72 hours, the solutions were removed from the water bath and appearance recorded for each of the saturated solutions. […] The supernatants were prepared for analysis by UPLC. Triplicate weighed aliquots were prepared from the collected supernatants and analyzed for assay using a UPLC/UV method. The analysis was performed using a Waters BEH C18 column (2.1 mm×50 mm, 1.7 μm) under gradient, reversed phase conditions with detection at 260 nm. The saturated solutions were quantitated by linear regression analysis against a 5-point calibration curve.
Testing using the same methodology was performed for EFdA, LNG, and ENG using various excipients.

CC(C)OC(=O)[C@H](C)N[P@](=O)(CO[C@H](C)Cn1cnc2c(N)ncnc21)Oc1ccccc1 [TAF, Tenofovir Alafenamide Fumarate]
duration of drug delivery [1]: 40 days
release rate of TAF ([2]; 2:1 TAF:castor oil, 45 μm wall): 0.91 ± 0.23 mg/day
release rate of TAF ([2]; 2:1 TAF:castor oil, 70 μm wall): 0.61 ± 0.09 mg/day
release rate of TAF ([2]; 2:1 TAF:castor oil, 100 μm wall): 0.29 ± 0.05 mg/day
release rate of TAF ([2]; 2:1 TAF:castor oil, 150 μm wall): 0.19 ± 0.04 mg/day
release rate of TAF ([2]; 2:1 TAF:castor oil, 200 μm wall): 0.15 ± 0.03 mg/day
initial release rate ([2]; 4:1 TAF-castor oil formulation): 0.2 mg/day
initial release rate ([2]; 5:1 TAF-castor oil formulation): 0.4 mg/day
release rate of TAF from implant ([2]; 45 μm PCL wall): approximately 0.8 mg/day
TAF dosage (daily release rate) ([2]; 45 μm wall thickness, 2:1 TAF:castor oil): 0.78 ± 0.03 mg/day
release rate of TAF from implant ([2]; 200 μm PCL wall): ~0.2 mg/day
TAF dosage (daily release rate) ([2]; 200 μm wall thickness, 2:1 TAF:castor oil): 0.13 ± 0.01 mg/day
Release Rates of TAF, Non-Irradiated ([2]; PC-12, 70 μm wall): 0.37 ± 0.05 mg/day
Release Rates of TAF, Gamma-Irradiated ([2]; PC-12, 70 μm wall): 0.30 ± 0.03 mg/day
Release Rates of TAF, Non-Irradiated ([2]; PC-12, 100 μm wall): 0.20 ± 0.03 mg/day
Release Rates of TAF, Gamma-Irradiated ([2]; PC-12, 100 μm wall): 0.20 ± 0.02 mg/day
Release Rates of TAF, Non-Irradiated ([2]; Sigma-PCL, 70 μm wall): 0.62 ± 0.09 mg/day
Release Rates of TAF, Gamma-Irradiated ([2]; Sigma-PCL, 70 μm wall): 0.54 ± 0.06 mg/day
Release Rates of TAF, Non-Irradiated ([2]; Sigma-PCL, 100 μm wall): 0.29 ± 0.05 mg/day
Release Rates of TAF, Gamma-Irradiated ([2]; Sigma-PCL, 100 μm wall): 0.32 ± 0.03 mg/day
Measured release rates for full sized device ([2]; TAF castor oil devices (1:1, 2:1, 3:1), PCL wall 70 μm, 2.5 mm x 40 mm): 0.7 mg/day and 0.7 ± 0.08 mg/day
Measured release rates for full sized device ([2]; TAF castor oil devices, PCL wall 100 μm): 0.38 ± 0.04 mg/day
Measured release rates for full sized device ([2]; TAF castor oil devices, PCL wall 200 μm): 0.22 ± 0.01 mg/day
J, drug released from the membrane per unit area per unit time ([2]; TAF castor oil, 70 μm, surface area 314 mm^2): 0.002 mg/day/mm^2
start of depletion ([2]; TAF:castor oil 1:1, 70 μm, 2.5 mm x 40 mm): 76 days
start of depletion ([2]; TAF:castor oil 2:1, 70 μm, 2.5 mm x 40 mm): 83 days
TAF remaining within the implant ([2]; after 180 days in vitro, payload approximately 115 mg): approximately 68 mg
sustained release rate of TAF ([2]; over the course of 180 days in vitro, 2:1 TAF:castor oil, 100 μm wall, 2.5 mm OD x 40 mm): 0.25 ± 0.03 mg/day
duration of zero-order release from segmented implants ([2]; segmented implants of TAF with LNG or ENG): 50 days
reactivity at the site of the implant [3]: minimal reactivity
chromatographic purity of TAF remaining in implant [4]: 89.2±0.8%
solubility at 72 h ([5]; 37 °C, oil or lipid, thermodynamic from solid): 3900 µg/mL
solubility of TAF within four different excipients ([5]; sesame oil, castor oil, oleic acid, PEG 600, FIG. 8): most soluble in oleic acid and PEG600
